Test results published in PMC10397409, “The action of physiological and synthetic steroids on the calcium channel CatSper in human sperm” (Frontiers in Cell and Developmental Biology, 2023).
Read-outs that look alike come from different tables or passages of the source.

What was measured:
[1] = target: T1, CatSper (Homo sapiens, UniProt Q7RTX7+Q86XQ3+Q8NEC5+Q96P56); assay: Steroid-induced increase in [Ca2+]i in human sperm (Fluo-4 HTS assay, screen 1 activators); assay type: cell-based; settings: for Emax: read-out: Max amplitude (%) (± SD)
T1 construct: Motile spermatozoa were selected by a ‘swim-up’ procedure; endogenous in cells; host or cells: motile human spermatozoa (swim-up) from healthy donors

[2] = target: T1, CatSper; assay: Inhibition of PGE1-induced Ca2+ influx in human sperm (screen 2 inhibitors); assay type: cell-based
Description: Briefly, motile spermatozoa were selected by swim-up and labeled with the fluorescent calcium indicator Fluo-4 a.m. to image changes in [Ca^2+]i. After centrifugation to remove excess dye, Fluo-4 AM loaded cells were distributed in a 384-wells plate to obtain ∼125,000 cells/well. After measuring basal fluorescence, a first injection of compounds was performed in order to evaluate their effect on [Ca^2+]i alone. This first screen is therefore considered as a screen to search for ‘activators’. Fluorescence was recorded for 12 min during which sperm cells were continuously exposed to compounds. P4 or PGE1 were then added in the same wells to evaluate whether the tested compounds can reduce the ligand-induced activation of CatSper. This second screen was therefore considered to be a search for CatSper ‘inhibitors’.
Human semen samples were collected from healthy donors by masturbation after a recommended sexual abstinence period of minimum 2 days. Semen samples were allowed to liquefy at 37°C for 15–30 min. Motile spermatozoa were selected by a ‘swim-up’ procedure as previously described ([Strünker et al., 2011]). Briefly, 1 mL of semen was deposited in a 45°-inclined 50 mL Falcon tube with 4 mL of Human Tubular Fluid (HTF) medium containing: 93.8 mM NaCl, 4.7 mM KCl, 0.2 mM MgSO4, 0.37 mM KH2PO4, 2.04 mM CaCl2, 20.98 mM HEPES, 2.78 mM glucose, 21.4 mM Na-lactate, 4 mM NaHCO3, 0.33 mM Na-pyruvate, and the pH was adjusted to 7.35. Motile sperm were allowed to swim at 37°C for 1 hour. The supernatant was collected in 15 mL Falcon tubes and washed twice by centrifugation at 700 x g for 20 min. Sperm were supplemented with 3 mg/mL HSA. Written informed consent was obtained from all donors prior to donation and approved by the Cantonal Ethics Committee of the State of Geneva (CCER #14-147).
Cells were loaded with the fluorescent Ca^2+ indicator Fluo-4 AM at a final concentration of 2.5 µM for 30 min at 37°C. Excess dye was washed via centrifugation at 700 x g for 20 min and sperm were resuspended in HTF medium to obtain a final concentration of 6.25 x 10^6 cells/mL. 20 μL of cells (corresponding to ∼125,000 cells) loaded with Fluo-4 a.m. were dispensed in a 384-wells plate (Corning, NY, United States) to allow fluorescence measurement. The dye was excited at 480 nm, and emission was recorded at 530 nm. The change in [Ca^2+]i was assessed simultaneously in all wells using a Functional Drug Screening System (FDSS/μCELL) (Hamamatsu Phototonics K.K., Yokohama, Japan) at 37°C. Basal fluorescence was first measured for 30 s. […] P4 and PGE1 were tested at a near-saturating concentration in the HTS in order to evaluate a potential additive or synergistic effect induced by the compounds. Non-specific CatSper inhibitor MDL 12330A was used as a negative control at final concentration of 20 µM while DMSO was used as a vehicle control. For alkalization-induced Ca^2+ measurement, NH4Cl was used as a positive control at a final concentration of 10 mM. Fluorescence was recorded for a total of 16.5 min: 30 s before injection, 12 min after the first injection of the tested compounds, and 4 min after the second injection of either P4 or PGE1. The Prestwick library was tested in technical duplicate. Ca^2+ response curves were normalized using the following formula F−F0/F0×100 , where F 0 is the average of the basal fluorescence prior to the addition of the compound of interest and F corresponds to the fluorescence value at each time point. The ∆F/F0 of the vehicle control (DMSO) was subtracted from all the other values to adjust for dilution and pipetting artifacts. The values of all compounds were normalized to their respective controls.

[3] = EC50 (±SD), increase in [Ca2+]i, dose-response 90 µM to 0.3 nM
[4] = Mean EC50 µM (±SD), pooled from 3 independent experiments
[5] = maximal amplitude of steroid-induced [Ca2+]i increase, relative to P4, 3 independent experiments

In the case of C[C@]12CC[C@H](O)C[C@@H]1CC[C@@H]1[C@@H]2CC[C@]2(C)C(=O)CC[C@@H]12 [Epiandrosterone], the “EC02 compared with reported maximum concentration in blood serum” value [1] is reported as “EC02 below the reported maximum concentration found in blood serum”, the EC50 [1, 3] is reported as 0.209 µM and the EC50 [1, 4] is reported as 0.207 µM. It also gave an Emax [1] of 78%.

With CC(=O)[C@H]1CC[C@H]2[C@@H]3CCC4=CC(=O)CC[C@]4(C)[C@H]3CC[C@]12C [Progesterone] the EC50 ([1]; increase in [Ca2+]i in human sperm, read-out: EC50) was 0.0025 µM, the EC50 ([1]; increase in [Ca2+]i, dose-response 90 µM to 0.3 nM, read-out: EC50 (±SD)) was 0.003 µM and the Emax [1, 5] was 100%. For the same molecule, the EC50 ([1]; pooled from 3 independent experiments, read-out: Mean EC50 µM (±SD)) was 0.002 µM.

With CC(=O)[C@H]1CC[C@H]2[C@@H]3CC=C4C[C@@H](O)CC[C@]4(C)[C@H]3CC[C@]12C [Pregnenolone] the “EC02 compared with reported maximum concentration in blood serum” value [1] was “EC02 below the reported maximum concentration found in blood serum”, the “effective concentrations as low as (dose-dependent increase in [Ca2+]i)” value [1] was 10 nM and the EC50 [1, 3] was 0.073 µM. For the same molecule, the EC50 [1, 4] was 0.07 µM, the Emax [1, 5] was 73% and the IC50 [2] was 11 nM.

In the case of C[C@]12Cc3c[nH]nc3C[C@@H]1CC[C@@H]1[C@@H]2CC[C@@]2(C)[C@H]1CC[C@]2(C)O [Stanozolol], the EC50 [1, 3] is reported as 0.285 µM, the EC50 [1, 4] is reported as 0.081 µM and the “increase in [Ca2+]i” value ([1]; at low concentrations in the nanomolar range) is reported as 30%. For the same molecule, the Emax [1] was 79% and the IC50 [2] was 117 nM.
